Patent US20180228894A1, “INHIBITION OF CXCR4 SIGNALING IN CANCER IMMUNOTHERAPY” (Cambridge Enterprise Limited, priority 2013, published 2018)
“Also recorded” adds a separate entry of the source.

Legend:
[1] = tested on: PDA; test: Immunofluorescent confocal microscopy / ARIOL scanning of KPC tumor sections after treatment; type: in vivo, mouse
Description: (§1) All experiments were performed in accordance with institutional guidelines and were approved by the UK Home Office and the animal ethics committee of CRUK and the University of Cambridge. Mice were housed at a 12-hour light/12-hour dark cycle and received diet and water ad libitum. The generation of LSL-[…]; LSL10 Tp53R172H/+; Pdx-1-Cre (KPC) and FAP-DTR BAC transgenic mice has been described previously (8, 10). These strains were crossed to generate KPCD (Kras; p53; Cre; DTR) mice. KPC and KPCD mice were screened for tumors from an age of 60 days by abdominal palpation. Tumors were verified by high-resolution ultrasound (Vevo 2100, VisualSonics). Mice with average tumor diameters between 5-8 mm (corresponding to approx. 200 mm3 volume) were enrolled on 6 day treatment studies with 2 follow-up tumor size measurements (day 3 and 6). Where possible, tumors were assessed at multiple angles and the volumes averaged. KPC(−/+DTR Tg) mice were treated every 48 h with 25 ng/g DTx (List Biologicals) in PBS, […] α-PD1 (10F.9G2, Biolegend), 100 μg α-CTLA-4 (9H10, Biolegend) or isotype control antibody by intraperitoneal injection. […] For T-cell depletion studies mice received […] each of α-CD4 (GK1.5, Biolegend) and α-CD8α (53-6.7, Bioloegend) or respective isotype control antibodies for 3 consecutive […] before treatment start and on days 2 and 5 during the course of treatment via intraperitoneal injection.
5 μm frozen tissue sections were fixed in 4% paraformaldehyde (PFA) for 10 minutes at room temperature. Slides were blocked for one hour in 10% donkey serum (Sigma Aldrich)/0.2% Triton x-100. Primary antibodies were incubated overnight at 4° C. Following washing, slides were incubated for one hour at room temperature with appropriate secondary antibody and DAPI counterstain. Slides were subsequently incubated in 0.3M glycine for 10 minutes to reduce autofluorescence and mounted in Hydromount aqueous mounting medium (Fisher Scientific). Images were acquired on a Leica SP5 tandem confocal microscope. For analysis of p53 and Treg staining slides were scanned and analyzed using the automated ARIOL XT system.

[2] = tested on: autochthonous mouse pancreatic tumors (KPC model); test: In vitro T cell exclusion assay: vibratome sections of KPC pancreatic tumors overlaid with activated T cells; type: cell-based; conditions: culture in the presence of the substance, 37° C. for up to 120 min
Description: This assay tests the mechanism of T cell exclusion from the vicinity of the cancer cells. It also allows screening of drugs and tumors for potential efficacy. This in vitro assay may also be used to screen other drugs (anti-CXCL12, anti-CXCR4, other CXCR4-directed small molecules) that may interfere with the CXCL12/CXCR4 interaction.
300 um vibratome sections of fresh autochthonous mouse pancreatic tumors (the mouse KPC model of Hingorani et al., Cancer Cell 2005) are overlaid with labeled mouse splenic T cells that have been activated in vitro for several days with anti-CD3 and IL-2 (this generates a T cell population that is like the effector T cells that normally infiltrate inflamed tissues/tumors). The tumor tissue+labeled T cells are then cultured at 37° C. for up to 120 min, after which the non-infiltrated T cells are washed off. The vibratome sections are then fixed for staining (p53 which identifies cancer cells) and SHG (to visualize collagen/stromal regions) by confocal microscopy.

[3] = tested on: LL2/OVA tumors; conditions: AMD3100 30 mg/ml osmotic pump; C57BL/6 and Rag2−/− mice
Description: C57BL/6 were purchased from Charles River UK and Rag2−/− mice were bred at the local establishment. 2×10^5 LL2/OVA cells were injected subcutaneously in RPMI with 1% heat inactivated mouse serum. Tumor sizes were measured using calipers, measuring the long (L) and short (S) dimension, and tumor volumes were calculated using the equation: volume=(L×S2)/2.

[4] = tested on: PDA; test: PDA tumor volume by ultrasound in KPC / KPCD mice, 6 day treatment; type: in vivo, mouse
Description: as §1

[5] = AMD3100 in combination with α-PD-L1, 24 h treatment

Row | Molecule | Composition of residual tumors ([1]; AMD3100 alone, ARIOL scanning) | Proliferating Ki67+ cells ([1]; AMD3100 and anti-PD-L1, 6 days (FIG. 11, panel E)) | Foxp3+ cells in the tumors ([1]; AMD3100 high in combination with α-PD-L1, 24 h) | Accumulation of T cells amongst cancer cells [1, 5] | Frequency of p53+ LOH cancer cells [1, 5] | Composition of residual tumors ([1]; AMD3100 with α-PD-L1, ARIOL scanning) | Presence of p53+ LOH cancer cells in tumors ([1]; AMD3100 with α-PD-L1, after 6 days of treatment) | Accumulation of T cells amongst cancer cells ([1]; single agent, 24 h treatment) | Presence of p53+ LOH cancer cells in tumors ([1]; single agent, after 6 days of treatment) | Localization of T cells in tumor sections [2] | Control of subcutaneous LL2 tumors (tumor volume) [3] | Tumor growth ([4]; AMD3100 by osmotic pump, presence or absence of depleting antibodies to CD4+ and CD8+ T cells) | Decline in PDA volume ([4]; higher dose AMD3100 in combination with α-PD-L1, by 48 h, maintained for 6 days) [%] | PDA growth ([4]; higher dose of AMD3100 (osmotic pump)) | Interaction of AMD3100 with α-PD-L1 ([4]; murine PDA, combination)
1 | c1cc(CN2CCCNCCNCCCNCC2)ccc1CN1CCCNCCNCCCNCC1 [AMD3100, 1,1′-[1,4-phenylenebis(methylene)]bis [1,4,8,11-tetraazacyclotetradecane]] | comprised of premalignant CK19+ epithelial cells and CD45+ inflammatory cells | diminution in proliferating Ki67+ cells | increase | amplified this effect; also recorded: induce the accumulation of CD3+ T cells in cancer-cell-containing regions of PDA | decreased the frequency of p53+ LOH cells; also recorded: loss of cancer cells | comprised of premalignant CK19+ epithelial cells and CD45+ inflammatory cells | rare | increased the accumulation of T cells; also recorded: exclusion is overcome | rare | T cells to be found in both stromal and cancer cell regions | T cell-dependent control of subcutaneous immunogenic LL2 tumors | slowed by AMD3100 in a T cell-dependent manner | 15 | almost completely arrested PDA growth | remarkable synergistic interaction
2 | Z-VAD | – | – | – | – | – | – | – | – | – | T cells accumulating also amongst cancer cells | – | – | – | – | –
